Data from US11149008B2, “Sulfamide derivatives and preparation method and use thereof” (HitGen Ltd., priority 2015, dated 2021).

Legend:
[1] = tested on: HepG2 cells; assay: Cell growth inhibition measurement (CCK-8), HepG2; type: cell-based; conditions: Homo sapiens, HepG2, 72 h, highest EC50 measured during one or multiple operations, read-out: Inhibition activity against cancer cells, HepG2 (EC50)
Description: (§1) A HepG2 cell strain and an HCT-116 cell strain were purchased from Shanghai Institutes for Biological Sciences; a DMEM high-sugar culture medium and an MEM culture medium were purchased from Hyclone; fetal calf serum was purchased from Gibco; trypsin was purchased from Invitrogen Shanghai; a CCK-8 kit was purchased from Beyotime Institute of Biotechnology; and, the remaining cell culture mediums and other consumables were purchased from Corning China.
(§2) HepG2 cells and HCT-116 cells in the logarithmic growth phase were digested by trypsin. After the counting of uniform cell suspension, the cell density was adjusted as 1500 cells/well by a culture medium containing 10% serum. The cells were re-inoculated to a 96-well cell culture plate, and cultured to a volume of 200 μL at 37° C. in an incubator containing 5% CO2. The cells could be tested after being cultured for 24 h.
(§3) The cells cultured for 24 h were taken out from the incubator. The culture liquid in the well plate was sucked out, and 200 μL of compound solution prepared in the culture medium containing 10% fetal calf serum was added in each well. Five parallel mediums were provided for each concentration, and a DMSO culture medium was used as negative control. The culture mediums were cultured for 72 h at 37° C. in an incubator containing 5% CO2, and CCK-8 detection was performed.
(§4) A serum-free culture medium and CCK-8 solution were prepared, and CCK-8 working solution was prepared at a ratio of 10:1 (this process should be performed in dark place).
(§5) The cells cultured for 72 h were taken out from the incubator. The culture liquid in the well plate was sucked out, and 120 μL of the CCK-8 working solution was added in each well. A well plate without cells was also added with 120 μL of the CCK-8 working solution to serve as blank control. The well plates were cultured for 1 h at 37° C. in an incubator containing 5% CO2 (this process should be performed in dark place).
(§6) The well plates were taken out from the incubator, 100 μL of solution in each well was sucked out and added in a new 96-well plate, and the absorbance was measured at 450 nm (this process should be performed in dark place).
(§7) where Tx is the absorbance of the CCK-8 after the compound acts for 72 h;
(§8) C is the absorbance of the CCK-8 after the negative control wells are cultured for 72 h; and
(§9) B is the absorbance of the CCK-8 in the blank control wells.
(§10) The test results of the compounds prepared according to the embodiments during the measurement are shown in Table 3, wherein the measured highest EC50 of the compounds during one operation or multiple operations is classified according to the following description: […]

[2] = tested on: HCT-116 cells; assay: Cell growth inhibition measurement (CCK-8), HCT-116; type: cell-based; conditions: Homo sapiens, HCT-116, 72 h, highest EC50 measured during one or multiple operations, read-out: Inhibition activity against cancer cells, HCT-116 (EC50)
Description: as §1, §2, §3, §4, §5, §6, §7, §8, §9, §10

[3] = target: HDAC 1 (Homo sapiens, UniProt Q13547); assay: Enzyme activity detection of histone deacetylase 1 (fluorogenic substrate deacetylation); type: biochemical; conditions: 0.28 ng/μL HDAC 1, 10 μM substrate; IC50 class
HDAC 1, sequence (Q13547 whole entry, species assumed): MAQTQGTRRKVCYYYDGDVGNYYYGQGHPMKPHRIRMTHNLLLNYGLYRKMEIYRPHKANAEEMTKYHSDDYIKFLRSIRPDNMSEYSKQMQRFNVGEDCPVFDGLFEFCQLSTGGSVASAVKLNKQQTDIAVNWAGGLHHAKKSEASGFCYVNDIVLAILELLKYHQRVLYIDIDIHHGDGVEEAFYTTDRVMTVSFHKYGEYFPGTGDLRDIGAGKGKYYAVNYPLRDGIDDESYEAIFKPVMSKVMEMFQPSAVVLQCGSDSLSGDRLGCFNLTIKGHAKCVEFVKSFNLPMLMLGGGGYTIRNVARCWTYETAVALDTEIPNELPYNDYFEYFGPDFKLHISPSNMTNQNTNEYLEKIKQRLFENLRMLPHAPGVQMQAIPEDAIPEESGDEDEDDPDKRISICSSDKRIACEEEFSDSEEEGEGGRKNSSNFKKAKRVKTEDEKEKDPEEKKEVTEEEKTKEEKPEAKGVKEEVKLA
Description: During the deacetylation detection of a substrate, the HDAC inhibition activity of the compound of the present invention was detected.
C: Enzyme Activity Detection of Histone Deacetylase 1
Acetyl on the substrate was removed by the HDAC 1, so that the substrate was activated, and the developing liquid added subsequently could act on the substrate to release the fluorescent group. The size of the fluorescence signal reflected the activity of the HDAC 1. The IC50 detection method for this enzyme was disclosed in Chuping Xu, Elisabetta Soragni Improved Histone Deacetylase Inhibitors as Therapeutics for the Neurdegenerative Disease Friedreich's Ataxia: A New Synthetic Route. The total reaction system (100 μL/well) contained 0.28 ng/μL of HDAC 1, 10 μM of the substrate and the compound in different concentrations. The fluorescence signal was detected online at Ex/Em=360/460. The inhibition effect of the compound was determined from the obtained data, a concentration response curve was obtained by using the inhibition effect and the concentration of the compound, and the value of IC50 was fitted according to a four-parameter model.
The activities of the compounds prepared in the embodiments against the histone deacetylases 1, 3 and 6 (i.e., HDAC 1, HDAC 3 and HDAC 6) were detected by the above methods, and the test results were shown in Table 2, where the measurements of IC50 of the compounds were classified according to the following description: […]

SMILES	EC50 [1] [nM]	EC50 [2] [nM]	IC50 [3] [nM]
CN1CCC(n2cc(-c3ccc(S(=O)(=O)N4CC=C(C(=O)NO)CC4)cc3)cn2)CC1 [Compound 14, N-hydroxyl-1-((4-(1-(1-methylpiperidine-4-yl)-1H-pyrazol-4-yl)phenyl)sulfonyl)-1,2,3,6-tetrahydropyridine-4-formamide]	> 100	–	–
CN1CCN(c2ccc(-c3ccc(S(=O)(=O)N4CC=C(C(=O)NO)CC4)cc3F)cc2)CC1 [Compound 7, N-hydroxyl-1-((2-fluoro-4′-(4-methylpiperazine-1-yl)-[1,1′-biphenyl]-4-yl)sulfonyl)-1,2,3,6-tetrahydropyridine-4-formamide]	< 100	< 100	–
CN1CCN(c2ccc(-c3ccc(S(=O)(=O)N4C=CC(C(=O)NO)CC4)cc3)cc2)CC1 (stereo not shown) [Compound 15, N-hydroxyl-1-((4′-(4-methylpiperazine-1-yl)-[1, 1′-biphenyl]-4-yl)sulfonyl)-1,2,3,4-tetrahydropyridine-4-formamide]	< 100	< 100	< 100
CN1CCN(c2ccc(-c3ccc(S(=O)(=O)N4CC=C(C(=O)NO)CC4)cn3)cc2)CC1 [Compound 13, N-hydroxyl-1-((6-(4-(4-methylpiperazine-1-yl)phenyl)pyridine-3-yl)sulfonyl)-1,2,3,6-tetrahydropyridine-4-formamide]	< 100	< 100	< 100
CN(C)CCc1ccc(-c2ccc(S(=O)(=O)N3CC=C(C(=O)NO)CC3)cc2)cc1 [Compound 12, N-hydroxyl-1-((4′-(2-(dimethylamino)ethyl)-[1, 1′-biphenyl]-4-yl)sulfonyl)-1,2,3,6-tetrahydropyridine-4-formamide]	< 100	< 100	< 100
CCN(CC)Cc1ccc(-c2ccc(S(=O)(=O)N3CC=C(C(=O)NO)CC3)cc2)cc1 [Compound 18, N-hydroxyl-1-((4′-((diethylamino)methyl)-[1,1′-biphenyl]-4-yl)sulfonyl)-1,2,3,6-tetrahydropyridine-4-formamide]	< 100	< 100	< 100
COCCN1CCN(c2ccc(-c3ccc(S(=O)(=O)N4CC=C(C(=O)NO)CC4)cc3)cn2)CC1 [Compound 17, N-hydroxyl-1-((4-(6-(4-(2-methoxyethyl)piperazine-1-yl)pyridine-3-yl)phenyl)sulfonyl)-1,2,3,6-tetrahydropyridine-4-formamide]	> 100	–	–
CN(C)CCNC(=O)c1ccc(-c2ccc(S(=O)(=O)N3CC=C(C(=O)NO)CC3)cc2)cc1 [Compound 22, N-hydroxyl-1-((4′-((2-(dimethylamino)ethyl)aminoformyl)-[1,1′-biphenyl]-4-yl)sulfonyl)-1,2,3,6-tetrahydropyridine-4-formamide]	> 100	–	–

The next lines start with the values.

EC50 [1] [nM]	EC50 [2] [nM]	IC50 [3] [nM]	SMILES
< 100	–	–	O=C(NO)C1=CCN(S(=O)(=O)c2ccc(-c3ccc(N4CCNCC4)cc3)cc2)CC1 [Compound 10, N-hydroxyl-1-((4′-(piperazine-1-yl)-[1,1′-biphenyl]-4-yl)sulfonyl)-1,2,3,6-tetrahydropyridine-4-formamide]
< 100	< 100	< 100	CN(C)Cc1ccc(-c2ccc(S(=O)(=O)N3CC=C(C(=O)NO)CC3)cc2)cc1 [Compound 8, N-hydroxyl-1((4′-((dimethylamino)methyl)-[1, 1′-biphenyl]-4-yl)sulfonyl)-1,2,3,6-tetrahydropyridine-4-formamide]
< 100	< 100	< 100	CCN1CCN(c2ccc(-c3ccc(S(=O)(=O)N4CC=C(C(=O)NO)CC4)cc3)cc2)CC1 [Compound 6]
< 100	–	–	CN1CCN(c2ccc(-c3ccc(S(=O)(=O)N4CC=C(C(=O)NO)CC4)cc3)cc2F)CC1 [Compound 3, N-hydroxyl-1-((3′-fluoro-4′-(4-methylpiperazine-1-yl)-[1,1′-biphenyl]-4-yl)sulfonyl)-1,2,3,6-tetrahydropyridine-4-formamide]
< 100	–	–	CC1CN(c2ccc(-c3ccc(S(=O)(=O)N4CC=C(C(=O)NO)CC4)cc3)cc2)CCN1C (stereo not shown) [Compound 9, N-hydroxyl-1-((4′-(3,4′-dimethylpiperazine-1-yl)-[1,1′-biphenyl]-4-yl)sulfonyl)-1,2,3,6-tetrahydropyridine-4-formamide]
< 100	–	–	CN1CCN(c2ccc(-c3ccc(S(=O)(=O)N4CC=C(C(=O)NO)CC4)cc3)cn2)CC1 [Compound 5]
< 100	–	–	CN1CCCN(c2ccc(-c3ccc(S(=O)(=O)N4CC=C(C(=O)NO)CC4)cc3)cn2)CC1 [Compound 24, N-hydroxyl-1-((4-(6-(4-methyl-1,4-diazaheptane-1-yl)pyridine-3-yl)phenyl)sulfonyl)-1,2,3,6-tetrahydropyridine-4-formamide]
< 100	< 100	–	O=C(NO)C1=CCN(S(=O)(=O)c2ccc(-c3ccc(CN4CCOCC4)cc3)cc2)CC1 [Compound 21, N-hydroxyl-1-((4′-(morpholinylmethyl)-[1,1′-biphenyl]-4-yl)sulfonyl)-1,2,3,6-tetrahydropyridine-4-formamide]
< 100	–	–	O=C(NO)C1=CCN(S(=O)(=O)c2ccc(-c3ccc(N4CCN(C5CC5)CC4)cc3)cc2)CC1 [Compound 11, N-hydroxyl-1-((4′-(4-cyclopropylpiperazine-1-yl)-[1,1′-biphenyl]-4-yl)sulfonyl)-1,2,3,6-tetrahydropyridine-4-formamide]
< 100	< 100	–	CN1CCN(Cc2ccc(-c3ccc(S(=O)(=O)N4CC=C(C(=O)NO)CC4)cc3)cc2)CC1 [Compound 20, N-hydroxyl-1-((4′-((4-methylpiperazine-1-yl)methyl)-[1,1′-biphenyl]-4-yl)sulfonyl)-1,2,3,6-tetrahydropyridazole-4-formamide]
< 100	–	–	COCCN1CCN(c2ccc(-c3ccc(S(=O)(=O)N4CC=C(C(=O)NO)CC4)cc3)cc2)CC1 [Compound 4, N-hydroxyl-1-((4′-(4-(2-methoxyethyl)piperazine-1-yl)-[1,1′-biphenyl]-4-yl)sulfonyl)-1,2,3,6-tetrahydropyridine-4-formamide]
